Measured values: ChEMBL document CHEMBL1123447, “Biologically active derivatives of gossypol: synthesis and antimalarial activities of peri-acylated gossylic nitriles” (J Med Chem, 1986)

Legend:
Plasmodium falciparum [1] = test: Antimalarial activity against chloroquine-sensitive Plasmodium falciparum CDC/I/HB-3; type: functional, organism-based
Plasmodium falciparum [2] = test: Antimalarial activity against chloroquine-resistant Plasmodium falciparum FCB/NC1; type: functional, organism-based
[3] = Compound was tested for the inhibition of LDH from a chloroquine-resistant strain (FCB/NC-1) of Plasmodium falciparum

| SMILES | IC50 (Plasmodium falciparum [1]) [µM] | IC50 (Plasmodium falciparum [2]) [µM] | Ki [3] [µM] |
| --- | --- | --- | --- |
| Cc1cc2c(C(C)C)c(O)c(O)c(C=O)c2c(O)c1-c1c(C)cc2c(C(C)C)c(O)c(O)c(C=O)c2c1O [GOSSYPOL] | 7 | 13 |  |
| CCCCC(=O)Oc1c(-c2c(C)cc3c(C(C)C)c(O)c(O)c(C#N)c3c2OC(=O)CCCC)c(C)cc2c(C(C)C)c(O)c(O)c(C#N)c12 | 12 | 16 | 0.33 |
| CCC(=O)Oc1c(-c2c(C)cc3c(C(C)C)c(O)c(O)c(C#N)c3c2OC(=O)CC)c(C)cc2c(C(C)C)c(O)c(O)c(C#N)c12 | 46 | 69 | 1.1 |
| CCCC(=O)Oc1c(-c2c(C)cc3c(C(C)C)c(O)c(O)c(C#N)c3c2OC(=O)CCC)c(C)cc2c(C(C)C)c(O)c(O)c(C#N)c12 | 21 | 26 | 0.62 |
| CC(=O)Oc1c(-c2c(C)cc3c(C(C)C)c(O)c(O)c(C#N)c3c2OC(C)=O)c(C)cc2c(C(C)C)c(O)c(O)c(C#N)c12 | 36 | 76 | 0.83 |
